Measurements taken from the supplement of paper PMC10307832.

Assays:
Experiment in all cases: relative viability (nuclei count vs DMSO), 5 days (fraction); higher = more cells survive
[1] = compound: CC(C)C[C@@H](C(=O)N[C@H](C(=O)OC1CCCC1)c1ccccc1)[C@H](O)C(=O)NO [Tosedostat] + O=C(CCCCCCC(=O)Nc1ccccc1)NO [Vorinostat] (partner 1 µM)
How it was run: (§1)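 For relative viability, nuclei counts in treated wells were divided by those in vehicle wells. Lung cancer cell lines had been pin-tool dosed in 1536-well plates the day after seeding and cultured for 5 days, then fixed and stained in one step (final 0.05% Triton X-100, 1% formaldehyde, 1 ug/ml Hoechst) and imaged at 4×. Doses were one drug alone or a fixed anchor-drug dose plus five library-drug doses (not always all listed) in √10 steps, and values are duplicate-plate medians.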

[2] = compound: CC1=NN=C(O1)C2=NN=C(C=C2)N3CCC(CC3)OC4=C(C=CC(=C4)F)Cl + CCNC(=O)c1noc(-c2cc(C(C)C)c(O)cc2O)c1-c1ccc(CN2CCOCC2)cc1 [Luminespib] (partner 0.01 µM)
How it was run: as §1

[3] = compound: CC1=NN=C(O1)C2=NN=C(C=C2)N3CCC(CC3)OC4=C(C=CC(=C4)F)Cl + O=C(c1cc(Cc2n[nH]c(=O)c3ccccc23)ccc1F)N1CCN(C(=O)C2CC2)CC1 [Olaparib] (partner 8 µM)
How it was run: as §1

[4] = compound: CC1=NN=C(O1)C2=NN=C(C=C2)N3CCC(CC3)OC4=C(C=CC(=C4)F)Cl + Cc1cc(Nc2cc(N3CCN(C)CC3)nc(Sc3ccc(NC(=O)C4CC4)cc3)n2)n[nH]1 [Tozasertib] (partner 0.1 µM)
How it was run: as §1

Cell Line | relative viability ([1]; first compound 0.02 µM) | relative viability ([1]; first compound 0.06325 µM) | relative viability ([1]; first compound 0.2 µM) | relative viability ([1]; first compound 0.6325 µM) | relative viability ([1]; first compound 2 µM) | relative viability ([2]; first compound 0.253 µM) | relative viability ([2]; first compound 0.8 µM) | relative viability ([2]; first compound 2.53 µM) | relative viability ([2]; first compound 8 µM) | relative viability ([3]; first compound 0.253 µM) | relative viability ([3]; first compound 0.8 µM) | relative viability ([3]; first compound 2.53 µM) | relative viability ([3]; first compound 8 µM) | relative viability ([4]; first compound 0.253 µM) | relative viability ([4]; first compound 0.8 µM) | relative viability ([4]; first compound 2.53 µM) | relative viability ([4]; first compound 8 µM)
COR-L23 | 0.57 | 0.454 | 0.38 | 0.343 | 0.399 | 0.587 | 0.647 | 0.458 | 0.474 | 0.259 | 0.271 | 0.345 | 0.299 | 0.166 | 0.131 | 0.145 | 0.121
COR-L 105 | 0.92 | 0.825 | 1.1 | 0.785 | 0.759 | 0.622 | 0.812 | 0.691 | 0.625 | 0.556 | 0.703 | 0.819 | 0.901 | 0.328 | 0.375 | 0.365 | 0.427
LK-2 | 0.34 | 0.364 | 0.24 | 0.266 | 0.251 | 0.2 | 0.159 | 0.176 | 0.182 | 0.757 | 0.58 | 0.655 | 0.672 | 0.171 | 0.176 | 0.176 | 0.134
201T | 1.01 | 0.997 | 0.99 | 0.962 | 0.981 | 0.486 | 0.589 | 0.499 | 0.566 | 0.409 | 0.382 | 0.389 | 0.383 | 0.421 | 0.432 | 0.427 | 0.421
HCC-44 | 1.26 | 1.07 | 1.09 | 1.04 | 1.07 | 0.739 | 0.812 | 0.725 | 0.731 | 0.295 | 0.358 | 0.346 | 0.363 | 0.545 | 0.564 | 0.513 | 0.487
NCI-H838 | 0.772 | 0.732 | 0.808 | 0.833 | 0.87 | 0.257 | 0.255 | 0.348 | 0.226 | 0.536 | 0.595 | 0.637 | 0.591 | 0.244 | 0.248 | 0.247 | 0.245
H3255 | 0.759 | 0.752 | 0.799 | 0.608 | 0.783 | 0.82 | 0.737 | 0.727 | 0.66 | 0.483 | 0.498 | 0.5 | 0.527 | 0.619 | 0.489 | 0.589 | 0.542
PC-14 | 0.819 | 0.653 | 0.712 | 0.58 | 0.458 | 0.163 |  | 0.22 | 0.142 | 0.257 | 0.226 | 0.317 | 0.266 | 0.523 |  | 0.433 | 0.557
NCI-H2228 | 0.615 | 0.348 | 0.548 | 0.25 | 0.236 | 0.164 | 0.15 | 0.132 | 0.131 | 0.461 | 0.291 | 0.702 | 0.637 | 0.214 | 0.198 | 0.212 | 0.207
NCI-H322M | 0.855 | 0.958 | 0.887 | 0.995 | 0.802 | 0.815 | 0.796 | 0.726 | 0.648 | 0.746 | 0.724 | 0.817 | 0.732 | 0.488 | 0.482 | 0.422 | 0.436
NCI-H1944 | 0.632 | 0.505 | 0.653 | 0.523 | 0.556 | 0.45 | 0.417 | 0.483 | 0.402 | 0.289 | 0.337 | 0.359 | 0.344 | 0.22 | 0.216 | 0.213 | 0.229
NCI-H1793 | 0.683 | 0.72 | 0.714 | 0.665 | 0.684 | 0.132 | 0.348 | 0.166 | 0.405 | 0.761 | 0.74 | 0.762 | 0.738 | 0.368 | 0.302 | 0.219 | 0.195
NCI-H727 | 1.18 | 1.26 | 1.1 | 0.886 | 0.683 | 0.531 |  | 0.6 | 0.629 | 0.68 | 0.7 | 0.656 | 0.665 | 0.65 | 0.804 | 0.53 | 0.668
NCI-H661 | 0.837 | 0.826 | 0.796 | 0.775 | 0.814 | 0.785 | 0.751 | 0.714 | 0.549 | 0.619 | 0.542 | 0.583 | 0.586 | 0.305 | 0.319 | 0.308 | 0.265
EKVX | 0.722 | 0.647 | 0.764 | 0.688 | 0.773 | 0.447 | 0.362 | 0.331 | 0.32 | 0.402 | 0.381 | 0.464 | 0.494 | 0.258 | 0.15 | 0.196 | 0.196
NCI-H358 | 0.669 | 0.562 | 0.478 | 0.313 | 0.264 | 0.287 | 0.176 | 0.177 | 0.207 | 0.296 | 0.275 | 0.321 | 0.26 | 0.107 | 0.0958 | 0.116 | 0.0977
EPLC-272H | 0.509 | 0.489 | 0.347 | 0.401 | 0.269 | 0.226 | 0.167 | 0.313 | 0.267 | 0.744 | 0.742 | 0.758 | 0.657 | 0.36 | 0.228 | 0.184 | 0.158
NCI-H1666 | 1.06 | 1.16 | 1.06 | 1.04 | 1.05 | 0.537 | 0.504 | 0.479 | 0.444 | 0.692 | 0.728 | 0.655 | 0.664 | 0.43 | 0.496 | 0.458 | 0.388
